Assay results: a melting point compilation (Tetko et al.)

SMILES	melting point
O=C(O)c1ccc(N2CCCS2(=O)=O)cc1Cl	226 to 228 °C
N#CN=C1CCCN1	126 to 128 °C
CC(C)N(C)C(=O)C1CCN(C(=O)CCl)CC1	110 to 112 °C
Cc1cc(C)cc(C(=O)N2CCNCC2)c1	125 to 127 °C
CCCS(=O)(=O)N1CCCCC1C(=O)O (stereo unspecified)	84 to 86 °C
N#Cc1c(N)sc2c1CCCCC2	103 to 115 °C
CC1CCCC(C)N1S(=O)(=O)c1ccsc1C(=O)O (stereo unspecified)	150 to 152 °C
O=C1CCN(c2ccc(Cl)cc2)CC1	54 to 56 °C
O=C(Cc1ccccn1)c1ccc(Br)cc1	126 to 128 °C
Clc1cc2nc[nH]c2nc1Cl	119 to 121 °C
COc1ccccc1OCCC(=O)O	133 to 135 °C
Fc1ccc(NCc2cccnc2)c(F)c1	87 to 89 °C
O=C(O)C1(Br)CCC1	40 to 42 °C
CN(CC(=O)Nc1ccccc1C(F)(F)F)C(=O)CCl	123 to 125 °C
Cc1cc(C=O)c(C)n1-c1ccnn1C(C)C	77 to 79 °C
CC(Sc1ncn[nH]1)C(=O)O (stereo unspecified)	173 to 175 °C
CC(Oc1ccc(-c2nc3ccccc3s2)cc1)C(=O)O (stereo unspecified)	217 to 219 °C
CC(C)n1c(N)nnc1S	189 to 191 °C
O=C(O)/C=C/c1cccc(OCc2ccccc2)c1	151 to 153 °C
Nc1nnc(N)s1	192 to 194 °C
CCc1c(C)[nH]c2ccc(Oc3ccccc3)cc2c1=O	266 to 268 °C
COc1ccc(-c2nn(Cc3ccccc3)cc2C(=O)O)cc1OC	110 to 114 °C
O=Cc1cc(F)cc2cccnc12	114 to 116 °C
CC(C(=O)O)n1nnc(-c2ccccc2)n1 (stereo unspecified)	143 to 145 °C
COc1cc(C(=O)O)ccc1OCc1ccc(Br)s1	179 to 181 °C
Nc1ncc(Cl)cc1S(N)(=O)=O	226 to 228 °C

SMILES	melting point
O=S(=O)(Cl)c1cc2c(cc1Br)OCCCO2	105 to 107 °C
CSc1nc(-c2ccc(F)cc2)nc(C)c1C(=O)O	231 to 233 °C
CN(C)S(=O)(=O)c1ccsc1C(=O)O	108 to 110 °C
Cc1cc(-c2csc(N)n2)c(C)n1CC1CCCO1 (stereo unspecified)	112 to 116 °C
NS(=O)(=O)N1CCOc2ccccc21	135 to 137 °C
Clc1ccc(N2CCNCC2)nc1	64 to 66 °C
Nc1ccc(N2CCCCC2)c2ccncc12	149 to 151 °C
O=C(O)C=Cc1ccc(Oc2cccnc2)c(F)c1	202 to 204 °C
O=C(O)c1cc([N+](=O)[O-])c(F)cc1Cl	151 to 153 °C
O=Cc1ccc(-c2ccc(Cl)c(C(F)(F)F)c2)o1	74 to 76 °C
CC(C)(C)OC(=O)Nc1ncon1	165 to 167 °C
N#Cc1cccnc1OCC(F)(F)F	40 to 42 °C
O=C(O)COc1cccc(C(F)(F)F)c1	85 to 87 °C
N#CCC(=O)NCc1ccccc1	125 to 127 °C
COc1ccccc1-c1nnc(S)n1C	177 to 179 °C
O=C1NC(=O)N(C2CC2)C1=O	115 to 117 °C
Nc1cncc(Cl)n1	149 to 151 °C
O=C(O)c1ccc(F)c(COCc2ccccc2)c1	95 to 97 °C
COc1cc2c(cc1OC)CN(C(N)=O)CC2	198 to 200 °C
Nc1cccc(S(=O)(=O)Nc2nccs2)c1	170 to 172 °C
CN(C(=O)c1ccco1)c1ccccc1C(=O)O	189 to 191 °C
CC(Oc1ccc(C23CC4CC(CC(C4)C2)C3)cc1)C(=O)O (stereo unspecified)	153 to 155 °C
O=C(O)c1ncoc1CCC(F)(F)F	139 to 141 °C
O=C(NCCO)c1cccc(S(=O)(=O)N2CCCCC2)c1	65 to 68 °C
Nc1nc(N)nc(C2CCCC2)n1	202 to 204 °C
Nc1cc(C2CC2)nn1-c1ncccn1	144 to 146 °C

SMILES	melting point
COc1ccc2cc(C#N)ccc2c1	105 to 107 °C
NCc1nnn[nH]1	269 to 271 °C
Cc1cc(=O)n2c(n1)NCC2	159 to 161 °C
NC(C(=O)O)(c1cccc(F)c1)C(F)(F)F (stereo unspecified)	131 to 133 °C
CCNC(=S)n1ncc(C(=O)OCC)c1N	92 to 96 °C
O=C(O)C1CCSC1 (stereo unspecified)	60 to 62 °C
O=c1[nH]cnc2sc3c(c12)CCCCC3	107 to 109 °C
O=C(O)C1CCc2nnc(C(F)F)n2C1 (stereo unspecified)	215 to 217 °C
CCOC1CCN(C(=O)Nc2cccc(C(=O)O)c2)CC1	179 to 181 °C
CC(CC(=O)O)c1ccc(C(F)(F)F)cc1 (stereo unspecified)	88 to 90 °C
O=C(Cc1ccc(Cl)cc1)N1CCNCC1	105 to 107 °C
N#Cc1nc2ccccc2cc1Br	139 to 141 °C
c1ccc(NC2CCN(c3ccncc3)CC2)cc1	145 to 147 °C
O=C1CCc2cc(S(=O)(=O)Cl)c(F)cc2N1	207 to 209 °C
CC1=CC=CC(=C2Nc3ccc(F)cc3N2C(C)C)C1=N	160 to 162 °C
Cc1sc2nc(N)[nH]c(=O)c2c1C	353 to 355 °C
Clc1ccc2c(Cl)ccc(Cl)c2n1	85 to 87 °C
O=C(O)CCSc1ccccc1F	118 to 120 °C
NCC(O)CS(=O)(=O)c1cccs1 (stereo unspecified)	111 to 113 °C
Cc1cc(O)nc(C(C)(C)C)n1	177 to 179 °C
O=C(O)C(CO)NS(=O)(=O)c1ccc(Cl)cc1 (stereo unspecified)	206 to 208 °C
Nc1nc2c(F)c(Cl)ccc2s1	80 to 82 °C
CCn1c(N)c(-c2csc(C)n2)c(=O)[nH]c1=O	250 to 252 °C
N#CC1(C(=O)O)CCc2ccccc2C1 (stereo unspecified)	123 to 125 °C
O=C(O)C(OC1CCOCC1)c1ccccc1 (stereo unspecified)	87 to 89 °C
CNC(C)c1ccc(-n2cncn2)cc1 (stereo unspecified)	44 to 48 °C

SMILES	melting point
CN(C)S(=O)(=O)c1ccc2c(c1)CCN2	111 to 113 °C
O=c1[nH]c(-c2ncccn2)no1	221 to 223 °C
O=C(O)C1CCCN(C(=O)CCOc2ccccc2)C1 (stereo unspecified)	171 to 173 °C
O=C(CCl)N1CCN(S(=O)(=O)c2ccc(Cl)s2)CC1	240 to 245 °C
COc1ccccc1C1CC1C(=O)O (stereo unspecified)	137 to 139 °C
CCOC(=O)c1cc(C2CC2)[nH]n1	98 to 100 °C
O=C(O)c1ccc(OCC(F)(F)C(F)F)nc1	143 to 145 °C
CC(C)C(=O)Nc1ccc(C(=O)O)cc1	240 to 242 °C
O=[N+]([O-])c1ccc(-c2noc(C(F)F)n2)cc1	76 to 78 °C
O=C(O)CCNC(=O)c1ccoc1	154 to 156 °C
N#Cc1cccc(NC(=O)c2ccccc2F)c1	132 to 134 °C
O=C(O)c1nnc(S)[nH]c1=O	229 to 231 °C
CC(C)(C)OC(=O)N1CCN(c2nnc(N)[nH]2)CC1	178 to 180 °C
COc1ccccc1-n1cc(S(N)(=O)=O)cn1	143 to 145 °C
O=c1[nH]c(CO)nc2scc(-c3ccccc3)c12	259 to 261 °C
COc1cccc2c1CCC2=O	105 to 107 °C
NC(=S)C1CCCC1	84 to 86 °C
CCCN(CCC)C(=O)c1cccc(C(=O)O)c1	94 to 96 °C
O=C(O)c1ccc(NS(=O)(=O)c2ccc3c(c2)OCCO3)cc1	94 to 97 °C
Cc1cc(C(=O)CCl)c(C)n1CC(F)(F)F	143 to 145 °C
O=C(O)c1ccccc1SC(F)(F)F	120 to 122 °C
NN1C(=O)NC2(CCCCC2)C1=O	164 to 166 °C
O=C(O)CN1Cc2ccccc2C1	209 to 211 °C
CCOC(=O)C(NC(C)=O)C(C)=O (stereo unspecified)	44 to 46 °C

More lines, now with the values ahead:

melting point	SMILES
139 to 141 °C	Cc1cc(C#N)ccc1-n1cncn1
99 to 101 °C	COC(=O)N(C)c1ccc(O)cc1
119 to 121 °C	Nc1cccn(Cc2ccccc2)c1=O
146 to 148 °C	Cc1ccc(-n2nc(C)c(CC(=O)O)c2C)cc1Cl
139 to 141 °C	CC(=O)c1cc(N)cc(C(C)=O)c1
159 to 161 °C	COc1ccc([N+](=O)[O-])cc1NC(=O)CCCl
196 to 198 °C	O=C(O)c1csc(-c2ccc(F)cc2)n1
108 to 110 °C	Cc1ccc(CO)cc1N
68 to 70 °C	CCNS(=O)(=O)c1cc(F)ccc1F
272 to 274 °C	O=C(O)Cn1[nH]c(=O)c2ccccc2c1=O
159 to 161 °C	CCOc1cc(C(=O)O)ccc1OC(F)F
59 to 61 °C	Nc1cnn(-c2ccccc2F)c1
139 to 141 °C	Cc1ccc(NC(=O)CO)cc1
154 to 156 °C	N#Cc1ccc(CS(N)(=O)=O)cc1
161 to 163 °C	O=C1Nc2ccccc2C1O (stereo unspecified)
86 to 88 °C	Cc1cc(C(=O)c2cccnc2)ccc1F
209 to 211 °C	NC(=O)Cn1cnc(-c2ccccc2)c1N
183 to 185 °C	Nc1nnn(Cc2ccccc2)n1
246 to 248 °C	Cc1cc(C(N)=O)c2ccccc2n1
154 to 156 °C	CS(=O)(=O)c1ccccc1CC(=O)O
80 to 82 °C	OCc1noc(-c2ccccc2)n1
129 to 131 °C	CNS(=O)(=O)c1cccc(CN)c1

melting point	SMILES
209 to 211 °C	CNS(=O)(=O)c1cc(C(=O)O)ccc1F
110 to 112 °C	COc1ccc(NC(=O)CC#N)cc1Cl
65 to 67 °C	CC1CSc2ccc(Br)cc2C1=O (stereo unspecified)
132 to 134 °C	CCOC(=O)c1oc2ccc(Br)cc2c1CBr
111 to 113 °C	Nc1cc(N)c(F)cc1F
183 to 185 °C	CS(=O)(=O)c1ccc(Cl)c(C(=O)O)c1
36 to 38 °C	Cc1cc(C(=O)CCl)c(Cl)cc1F
174 to 176 °C	Cc1c(F)ccc2sc(N)nc12
164 to 166 °C	Nc1ccc(CC(=O)N2CCOCC2)cc1
177 to 179 °C	CS(=O)(=O)c1cccc(C(N)=O)c1
82 to 84 °C	Cc1csc(-c2cccc(N)c2)n1
94 to 96 °C	Cc1ccc(S(=O)(=O)NCCN)s1
117 to 119 °C	COC(=O)c1ccc(N)c(OCC(F)(F)F)c1
80 to 82 °C	Cc1ccc(C(C)C)cc1OC(C)C(=O)O (stereo unspecified)
129 to 131 °C	Nc1ccc2[nH]c(C(F)F)nc2c1
55 to 57 °C	CCOC(=O)CCOc1ccc(C(C)=O)cc1
104 to 106 °C	CC(C)(O)c1ccc(O)cc1
124 to 126 °C	O=C(CO)c1ccc(Cl)cc1
291 to 293 °C	O=C(O)c1c2c(nc3ccc(Br)cc13)CCCC2
54 to 56 °C	N#CCc1c[nH]c2ccc(F)cc12
108 to 110 °C	COC(=O)c1ccc(-c2nc(CCl)cs2)cc1
89 to 91 °C	NCc1cccc(OCC(N)=O)c1
